Data on two molecules can be found in US20230132823A1, “BI-FUNCTIONAL COMPOUNDS AND METHODS FOR TARGETED UBIQUITINATION OF ANDROGEN RECEPTOR” (MONTELINO THERAPEUTICS, INC., priority 2020, published 2023).

Structures are written as SMILES. Where two headings read alike, the source gives them in different places. Where a SMILES comes first, the peptide text is derived from it. [ ]: non-standard residue; d: D form. The star is where a group is joined. ξ: configuration not given here. X1 = O=C(COc1c(-c2csc(N3CCOCC3)n2)ccc(F)c1F)NCCCCCCN*; Dip = N[C@H](C(=O)O)C(c1ccccc1)c1ccccc1; Chg = N[C@H](C(=O)O)C1CCCCC1; NMeA = CN[C@@H](C)C(=O)O; ξP = O=C(O)C1CCCN1 Bounds are passed on as bounds.

Data set [1] in a line: Body weight of tumor-bearing mice during treatment. In kind it is in vivo. As to the method: (§1) The in vivo effects of the Compound of Example 16 are assessed in mice using enzalutamide-resistant CaP xenografts. First, 22Rv1-Enz^R tumor xenografts are established in nu/nu mice. Upon CaP xenograft formation (average diameter of 3 mm), mice are randomized into controls or treatment. Control mice are treated with 100 μl vehicle containing 10 mg/ml enzalutamide (n=5). The treatment group is injected with 100 μl vehicle containing 2.5 mg/ml Compound of Example 16 and 10 mg/ml enzalutamide daily directly into tumors (n=5) and tumor volumes were followed. […] Tumors are harvested and analyzed at the end of the study period.
Enzalutamide-resistant CaP tumor xenografts are established in twelve mice and three each are assigned to the following four groups: control IP (vehicle), control oral (vehicle), 8.3 mg/kg IP, and 8.3 mg/kg oral. Because these cells are resistant to enzalutamide, all animals are administered enzalutamide.

For data set [2], the system named is 22Rv1-Enz^R tumor xenografts. As to the kind of experiment: 22Rv1-Enz^R tumor xenograft in castrated nu/nu mice. It counts as in vivo. Particulars: for tumor mass at 7 weeks: control approx. 1500 mm^3. As to the method:
In Vivo Study. To explore the therapeutic potential of Test Compound, 22Rv1, 22Rv1-Enz^R, VCaP, and VCaP-Enz^R are injected into nu/nu immunodeficient mice. When the resulting tumors reached an average size of 3 mm in diameter, all animals are surgically castrated via bilateral orchiectomy and divided into four groups of five mice each. For anesthesia, 3% isoflurane gas inhalation is used. Tumor size was measured using calipers and tumor volume was calculated using the formula: tumor volume=length×width^2[…].
Mice are then treated daily with Test Compound with or without enzalutamide via the indicated route (intratumoral, intraperitoneal, or oral) for five to six weeks. At the end of the study, all animals are sacrificed and tumors are harvested and analyzed. Statistical significance is calculated using the Student's t-test for paired comparisons of experimental groups and, where appropriate, by Wilcoxon rank sum test, and by 2-way ANOVA. In vitro experiments are repeated a minimum of three times.
as §1

A further data set deals with T1, AR-FL (Homo sapiens, UniProt P10275, DUP590-628/H875Y).
T1 sequence (P10275 with tags, fused parts or gaps DUP590-628/H875Y): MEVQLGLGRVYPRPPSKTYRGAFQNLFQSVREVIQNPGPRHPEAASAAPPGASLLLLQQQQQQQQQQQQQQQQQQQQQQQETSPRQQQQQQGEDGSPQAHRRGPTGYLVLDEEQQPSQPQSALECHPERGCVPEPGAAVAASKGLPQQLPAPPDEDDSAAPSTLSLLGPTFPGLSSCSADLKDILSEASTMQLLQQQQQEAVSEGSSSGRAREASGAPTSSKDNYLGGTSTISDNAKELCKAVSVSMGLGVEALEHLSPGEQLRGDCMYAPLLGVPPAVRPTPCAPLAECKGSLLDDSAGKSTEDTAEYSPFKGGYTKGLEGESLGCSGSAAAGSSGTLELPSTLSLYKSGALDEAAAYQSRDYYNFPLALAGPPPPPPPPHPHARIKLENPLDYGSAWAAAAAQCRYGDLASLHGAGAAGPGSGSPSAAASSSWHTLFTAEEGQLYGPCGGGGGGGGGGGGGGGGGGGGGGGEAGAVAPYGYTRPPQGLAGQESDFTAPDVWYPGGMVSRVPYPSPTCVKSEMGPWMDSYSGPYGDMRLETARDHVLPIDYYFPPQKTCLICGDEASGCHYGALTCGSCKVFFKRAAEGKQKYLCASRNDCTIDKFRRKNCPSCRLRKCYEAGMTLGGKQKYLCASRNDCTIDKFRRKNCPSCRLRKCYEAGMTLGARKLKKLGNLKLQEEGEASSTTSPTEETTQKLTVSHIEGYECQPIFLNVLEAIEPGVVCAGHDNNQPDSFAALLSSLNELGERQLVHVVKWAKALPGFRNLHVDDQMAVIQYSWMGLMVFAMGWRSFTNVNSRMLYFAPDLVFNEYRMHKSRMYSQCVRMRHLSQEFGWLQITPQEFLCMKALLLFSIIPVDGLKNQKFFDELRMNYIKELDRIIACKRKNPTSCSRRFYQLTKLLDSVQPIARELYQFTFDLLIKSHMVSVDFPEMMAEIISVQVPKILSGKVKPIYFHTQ
Put plainly: Immunoblot analysis of AR-FL protein in CaP cells (Experimental Example 3). In kind it is cell-based. On the set-up: decreased AR-V7 and AR-FL protein expression levels in 22Rv1 cells; endogenous in cells; host or cells: 22Rv1 (also VCaP, LNCaP and SAT-resistant sublines). As to the method:
Cell Culture. Human CaP cell lines, LNCaP, 22Rv1, VCaP, PC3, and DU145 are obtained from the American Type Culture Collection (ATCC) and maintained in the standard culture media: RPMI-1640 supplemented with 10% fetal bovine serum (FBS). LNCaP, 22Rv1, and VCaP are androgen-responsive cell lines, while PC3 and DU145 are not. To establish SAT resistant CaP cell lines, LNCaP, 22Rv1, and VCaP are treated continuously with 10-50 μM abiraterone, apalutamide, darolutamide, or enzalutamide. After 3-6 months, stable cell lines are established and designated as LNCaP-Abi^R, LNCaP-Apa^R, LNCaP-Daro^R, LNCaP-Enz^R, VCaP-Abi^R, VCaP-Apa^R, VCaP-Daro^R, VCaP-Enz^R, 22Rv1-Abi^R, 22Rv1-Apa^R, 22Rv1-Daro^R and 22Rv1-Enz^R. Unless otherwise specified, the standard culture media for these SAT-resistant cell lines included 10 μM of their respective SAT. For the proteasome inhibitor study, the inhibitors MG132 and Epoxomicin are used. The E3 ligase inhibitors Heclin, Nutlin 3a, Thalidomide, and VH298 are used. Cell lines obtained from ATCC are confirmed by checking their morphology using optical microscopy, establishing baselines for cell proliferation, verifying species of origin using isoenzymology, and characterizing the cell's DNA fingerprint using short tandem repeat (STR) profiling. Mycoplasma contamination is also assessed using a PCR based detection system.
Immunoblot Analysis. CaP cells are collected and lysed with the lysis buffer (20 mM Tris-HCl (pH 7.5), 150 mM NaCl, 1 mM Na2EDTA, 1 mM EGTA, 1% Triton, 2.5 mM sodium pyrophosphate, 1 mM beta-glycerophosphate, 1 mM Na3VO4, and 1 μg/ml leupeptin) containing 1 mM phenylmethylsulfonyl fluoride (PMSF). Cell lysates are then centrifuged and protein in the supernatant is quantified. After separating 25-50 μg of protein using SDS-PAGE, samples are incubated with AR-V7, GR, PR, ERα, AR-FL, ubiquitin, or β-actin antibodies. For AR-V7, AR-FL, PR, GR, and ERα immunoblots, primary antibody is diluted 1:1000 in 5% skim milk. For the β-actin immunoblot, 1:10000 diluted primary antibody is used. All membranes are incubated overnight at 4° C. Following the incubation with appropriate secondary antibody, immunoblots are analyzed using SuperSignal West Femto Maximum Sensitivity Substrate (ThermoFisher).
In general terms: Immunoblotting shows a protein as a band on a membrane.

For `Cc1ncsc1-c1ccc([C@H](C)NC(=O)[C@@H]2C[C@@H](O)CN2C(=O)[C@@H](NC(=O)CCCCNC(=O)COc2c(-c3csc(N4CCOCC4)n3)ccc(F)c2F)C(C)(C)C)cc1` [Example 16, (2S,4R)-1-((S)-2-(5-(2-(2,3-difluoro-6-(2-morpholinothiazol-4-yl)phenoxy)acetamido)pentanamido)-3,3-dimethylbutanoyl)-4-hydroxy-N-((S)-1-(4-(4-methylthiazol-5-yl)phenyl)ethyl)pyrrolidine-2-carboxamide], in data set [1] (8.3 mg/kg systemic dosing, four weeks), the “change in weight following treatment” value is “no significant change in weight”. Also, the “weight of the mice during treatment” value in data set [1] (intratumoral, 22Rv1-Enz^R xenograft, 5 weeks) is listed as “did not significantly change”. The “tumor volume at the end of 5 weeks” value in data set [2] (intratumoral daily, 100 μl of 2.5 mg/ml compound plus 10 mg/ml enzalutamide, control 800 mm^3) is “approximately 500 mm^3”. For the same molecule, the DC50 on AR-FL (22Rv1, 24 hours, immunoblot, read-out: DC50, concentration at which 50% of AR-FL degraded in 24 hours) was determined as 2000 nM. Moreover, the “concentration from which AR-FL protein expression is decreased (immunoblot)” value on AR-FL (22Rv1 cells, 24 hours, 0, 0.01, 0.1, 1 and 10 μM tested) was determined as 1 µM. In addition, the “AR-FL protein expression level in parental and SAT-resistant 22Rv1, VCaP and LNCaP cells” value at AR-FL (immunoblot) is on record as “decreases the protein expression levels”.

Consider `CN[C@@H](C)C(=O)N[C@H](C(=O)N1CCCC1C(=O)N[C@H](C(=O)NCCCCCCNC(=O)COc1c(-c2csc(N3CCOCC3)n2)ccc(F)c1F)C(c1ccccc1)c1ccccc1)C1CCCCC1` (stereo partly drawn) [Example 26, (S)-1-((S)-2-cyclohexyl-2-((S)-2-(methylamino)propanamido)acctyl)-N-((S)-1-((6-(2-(2,3-difluoro-6-(2-morpholinothiazol-4-yl)phenoxy)acetamido)hexyl)amino)-1-oxo-3,3-diphenylpropan-2-yl)pyrrolidine-2-carboxamide] (H-[NMeA][Chg][ξP][Dip]-X1), for which the “changes in animal body mass” value in data set [1] (22Rv1-Enz^R tumors, 8.3 mg/kg and 0.83 mg/kg, 7 weeks) is “No significant changes”. The “tumor mass at 7 weeks” value in data set [2] (0.83 mg/kg) and in data set [2] (8.3 mg/kg) was below 600 mm^3 in each case. Further, at AR-FL (24 hours, immunoblot, read-out: DC50, concentration at which 50% of AR-FL is degraded in 24 hours), the DC50 is below 500 nM.
